From patent publication US20260167656A1, “PHOSPHORAMIDATE COMPOUNDS AND USES THEREOF” (ALLORION THERAPEUTICS INC, priority 2022, published 2026)

Tests used:
[1] = system: non-small cell lung cancer cell line H460; test: In vitro human cancer cell line cytotoxicity (proliferation) assay in H460, CellTiter-Glo, 72 hours; assay type: cell-based; details: H460 cells, DMSO condition (no AKR1C3 inhibitor), read-out: CTG H460: Avg IC50 (nM) [Assay Condition: DMSO]
How it was run: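 IC50s in nM come from CellTiter-Glo viability read after 72 h of compound exposure. Compounds went in from 10 mM DMSO stocks onto H460 cells, which had been plated at 3×10^3 per well and grown 24 h beforehand at 37 °C, 5% CO2.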

[2] = system: non-small cell lung cancer cell line H460; test: H460 proliferation assay in the presence of 3 uM ASP9521 (AKR1C3 specific inhibitor); assay type: cell-based, human; details: H460 cells, CellTiter-Glo, 72 hours, in the presence of 3 uM ASP9521 added 4 hours prior to compounds; read-out: CTG H460: Avg IC50 (nM) [Assay Condition: ASP9521]
How it was run: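 AKR1C3 blocked with 3 uM ASP9521 given 4 h ahead of test compounds. H460 cells, plated 24 h earlier, were then treated for 72 h at 37 °C in 5% CO2. CellTiter-Glo luminescence gave viability.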

SMILES | IC50 ([1]; Homo sapiens, NCI-H460, 72 h) | IC50 [2] | IC50 [1]
CC(OP(=O)(N1C[C@@H]1C)N1C[C@@H]1C)c1ccc([N+](=O)[O-])c(Oc2cccc(C(=O)N(C)C)c2)c1 (some centres unmarked) [Example 211] | < 10 nM | 1270 nM | –
CC(OP(=O)(N1C[C@H]1C)N1C[C@H]1C)c1ccc([N+](=O)[O-])c(Oc2cccc(C(=O)N(C)C)c2)c1 (some centres unmarked) [Example 212] | – | 958 nM | < 10 nM
CC(OP(=O)(N1C[C@@H]1C)N1C[C@@H]1C)c1ccc([N+](=O)[O-])c(Oc2ccc(C(=O)N(C)C)cc2)c1 (some centres unmarked) [Example 213] | < 10 nM | 1200 nM | –
CC(OP(=O)(N1C[C@@H]1C)N1C[C@@H]1C)c1ccc([N+](=O)[O-])c(Oc2ccc(C(=O)N(C)C)cc2)c1 (some centres unmarked) [Example 214] | – | 913 nM | < 10 nM
CC(OP(=O)(N1C[C@H]1C)N1C[C@H]1C)c1ccc([N+](=O)[O-])c(Oc2ccc(C(=O)N(C)C)cc2)c1 (some centres unmarked) [Example 215] | < 10 nM | 3780 nM | –
CC(OP(=O)(N1C[C@H]1C)N1C[C@H]1C)c1ccc([N+](=O)[O-])c(Oc2ccc(C(=O)N(C)C)cc2)c1 (some centres unmarked) [Example 216] | – | 3240 nM | < 10 nM
CC(OP(=O)(N1C[C@@H]1C)N1C[C@@H]1C)c1ccc([N+](=O)[O-])c(Oc2ccc(-c3ccccc3)cc2)c1 (some centres unmarked) [Example 217] | < 10 nM | 1600 nM | –
CC(OP(=O)(N1C[C@H]1C)N1C[C@H]1C)c1ccc([N+](=O)[O-])c(Oc2ccc(-c3ccccc3)cc2)c1 (some centres unmarked) [Example 218] | < 10 nM | 1370 nM | –
CC(OP(=O)(N1C[C@@H]1C)N1C[C@@H]1C)c1ccc([N+](=O)[O-])c(Oc2ccc(-c3ccccc3)cc2)c1 (some centres unmarked) [Example 219] | – | 2750 nM | < 10 nM
CC(OP(=O)(N1C[C@H]1C)N1C[C@H]1C)c1ccc([N+](=O)[O-])c(Oc2ccc(-c3ccccc3)cc2)c1 (some centres unmarked) [Example 220] | – | 5050 nM | < 10 nM
CC(OP(=O)(N1C[C@@H]1C)N1C[C@@H]1C)c1ccc([N+](=O)[O-])c(Oc2ccc(-c3ccc(F)cn3)c(F)c2)c1 (some centres unmarked) [Example 221] | < 10 nM | 1210 nM | –
CC(OP(=O)(N1C[C@H]1C)N1C[C@H]1C)c1ccc([N+](=O)[O-])c(Oc2ccc(-c3ccc(F)cn3)c(F)c2)c1 (some centres unmarked) [Example 222] | 10 to 50 nM | 3260 nM | –
CC(OP(=O)(N1C[C@@H]1C)N1C[C@@H]1C)c1ccc([N+](=O)[O-])c(Oc2ccc(-c3ccc(F)cn3)c(F)c2)c1 (some centres unmarked) [Example 223] | – | 2590 nM | < 10 nM
CC(OP(=O)(N1C[C@H]1C)N1C[C@H]1C)c1ccc([N+](=O)[O-])c(Oc2ccc(-c3ccc(F)cn3)c(F)c2)c1 (some centres unmarked) [Example 224] | – | 6460 nM | < 10 nM
C[C@@H]1CN1P(=O)(OC(c1ccc([N+](=O)[O-])c(Oc2cccc(C(=O)N(C)C)c2)c1)C(F)(F)F)N1C[C@H]1C (some centres unmarked) [Example 226] | 10 to 50 nM | > 10000 nM | –
C[C@H]1CN1P(=O)(OC(c1ccc([N+](=O)[O-])c(Oc2cccc(C(=O)N(C)C)c2)c1)C(F)(F)F)N1C[C@@H]1C (some centres unmarked) [Example 227] | 10 to 50 nM | 9760 nM | –
C[C@@H]1CN1P(=O)(OC(c1ccc([N+](=O)[O-])c(Oc2cccc(C(=O)N(C)C)c2)c1)C(F)(F)F)N1C[C@H]1C (some centres unmarked) [Example 228] | – | > 10000 nM | 10 to 50 nM
CN(C)C(=O)c1cccc(Oc2cc3cc(COP(=O)(N4CC4)N4CC4)oc3cc2[N+](=O)[O-])c1 [Example 229, (5-(3-(dimethylcarbamoyl)phenoxy)-6-nitrobenzofuran-2-yl)methyl di(aziridin-1-yl)phosphinate] | < 10 nM | 515 nM | –
O=[N+]([O-])c1cc2oc(COP(=O)(N3CC3)N3CC3)cc2cc1Oc1ccc(-c2ccccc2)cc1 [Example 230, (5-([1,1′-biphenyl]-4-yloxy)-6-nitrobenzofuran-2-yl)methyl di(aziridin-1-yl)phosphinate] | < 10 nM | 846 nM | –
O=C(c1ccc(Oc2cc3cc(COP(=O)(N4CC4)N4CC4)oc3cc2[N+](=O)[O-])cc1)N1CCOCC1 [Example 231] | < 10 nM | 278 nM | –
O=C(NC1CC1)c1cccc(Oc2c([N+](=O)[O-])ccc3c2CCC3OP(=O)(N2CC2)N2CC2)c1 (centres unmarked) [Example 234] | < 10 nM | 865 nM | –
O=C(c1cccc(Oc2c([N+](=O)[O-])ccc3c2CCC3OP(=O)(N2CC2)N2CC2)c1)N1CCCCC1 (centres unmarked) [Example 236] | – | 715 nM | < 10 nM
O=C(c1cccc(Oc2c([N+](=O)[O-])ccc3c2CCC3OP(=O)(N2CC2)N2CC2)c1)N1CCCCC1 (centres unmarked) [Example 238] | – | 1160 nM | < 10 nM
CN(C(=O)c1cccc(Oc2c([N+](=O)[O-])ccc3c2CCC3OP(=O)(N2CC2)N2CC2)c1)c1ccccn1 (centres unmarked) [Example 247] | – | 764 nM | < 10 nM
C[C@@H]1CN(C(=O)c2cccc(Oc3c([N+](=O)[O-])ccc4c3CC[C@H]4OP(=O)(N3CC3)N3CC3)c2)C[C@H](C)O1 [Example 248] | – | 1650 nM | < 10 nM
